Data on two compounds can be found in PMC3096752 (Clinical cancer research : an official journal of the …, 2011).

In series [1] the test system is patients with B cell malignancies (multiple myeloma, indolent and mantle cell lymphoma). Description: Phase I 3+3 dose escalation: DLT and MTD. Type of series: in vivo, human.
Series [2] can be described thus: Alvocidib plasma pharmacokinetics. It counts as in vivo, human. The conditions noted are these: mean ± SD.
Another series deals with mantle cell lymphoma. To be noted: bortezomib alone; cited from earlier work.
The next series has as its system refractory/relapsed MM. The conditions noted are these: cited from earlier work.
Series [3] concerns refractory/relapsed indolent NHL (including follicular, marginal zone and SLL). To be noted: cited from earlier work.
Where [4] appears, read: Dose Level 1 (n=8 doses): alvocidib 20+20 mg/m^2.
The mark [5] stands for this setting: Dose Level 2 (n=6 doses): alvocidib 30+30 mg/m^2.
[6] abbreviates: Dose Level 3 (n=3 doses): alvocidib 30+50 mg/m^2.

On to `CN1CC[C@H](c2c(O)cc(O)c3c(=O)cc(-c4ccccc4Cl)oc23)[C@H](O)C1` [alvocidib], for which, in series [1] (days 1 and 8, 21 day cycle, after the 30 min bolus, in combination with bortezomib), the “MTD, alvocidib 4 hour infusion” value is recorded as 30 mg/m^2. Also, the “MTD, alvocidib 30 min bolus infusion” value in series [1] (days 1 and 8, 21 day cycle, in combination with bortezomib) came out at 30 mg/m^2. In addition, in series [2] (setting [4]), the CL is reported as 13,243 ± 2,540 ml/h/m^2, the K10 came to 0.803 ± 0.237 h⁻¹ and the V1 is given as 18,512 ± 8,687 ml/m^2. For the same compound, in series [2] (setting [5]), the CL is recorded as 12,825 ± 3,267 ml/h/m^2, the K10 was determined as 1.04 ± 0.438 h⁻¹ and the V1 was 14,888 ± 7,685 ml/m^2. In addition, in series [2] (setting [6]), the CL is recorded as 18,137 ± 8,097 ml/h/m^2, the K10 is 0.569 ± 0.169 h⁻¹, the V1 is given as 31,380 ± 7,368 ml/m^2 and the V2 is 48,448 ± 23,397 ml/m^2.
Take `CC(C)C[C@H](NC(=O)[C@H](Cc1ccccc1)NC(=O)c1cnccn1)B(O)O` [bortezomib]: in series [1] (IV push days 1, 4, 8, 11, 21 day cycle, in combination with alvocidib), the “MTD, bortezomib” value is on record as 1.3 mg/m^2. Further, the “single-agent activity (response rate)” value with mantle cell lymphoma is given as “approximately 33%”. For the same compound, the “responses to single-agent bortezomib” value in the series on refractory/relapsed MM is given as “approximately 35%”. For the same compound, in series [3], the “response rates to single agent bortezomib” value was “approximately 13.3%”.
